# Key:
# Assay type in all cases: in vivo
# [1] = system: Matricaria inodora; experiment: Pre-emergence herbicidal effect; conditions: 320 g ai/ha, visual score after 3 weeks
# Source text: (§1) Seeds of monocotyledonous and dicotyledonous weed plants and crop plants are laid out in sandy loam soil in wood-fibre pots and covered with soil. The compounds of the invention, formulated in the form of wettable powders (WP) or as emulsion concentrates (EC), are then applied to the surface of the covering soil as aqueous suspension or emulsion at a water application rate equating to 600 to 800 L/ha with addition of 0.2% wetting agent. After the treatment, the pots are placed in a greenhouse and kept under good growth conditions for the trial plants. The damage to the test plants is scored visually after a test period of 3 weeks by comparison with untreated controls (herbicidal activity in percent (%): 100% activity=the plants have died, 0% activity=like control plants). [table]
# [2] = system: Alopecurus myosuroides; experiment: Pre-emergence herbicidal effect; conditions: visual score after 3 weeks
# Source text: as §1
# [3] = system: Abutylon threophrasti; experiment: Pre-emergence herbicidal effect; conditions: 320 g ai/ha, visual score after 3 weeks
# Source text: as §1
# [4] = system: Digitaria sanguinalis; experiment: Pre-emergence herbicidal effect; conditions: visual score after 3 weeks
# Source text: as §1
# [5] = system: Viola tricolor; experiment: Pre-emergence herbicidal effect; conditions: visual score after 3 weeks
# Source text: as §1
# [6] = system: Veronica persica; experiment: Pre-emergence herbicidal effect; conditions: 320 g ai/ha, visual score after 3 weeks
# Source text: as §1
# [7] = system: Amaranthus retroflexus; experiment: Pre-emergence herbicidal effect; conditions: 320 g ai/ha, visual score after 3 weeks
# Source text: as §1
# [8] = system: Lolium rigidum; experiment: Pre-emergence herbicidal effect; conditions: visual score after 3 weeks
# Source text: as §1
# [9] = system: Avena fatua; experiment: Pre-emergence herbicidal effect; conditions: visual score after 3 weeks
# Source text: as §1
# [10] = system: Setaria viridis; experiment: Pre-emergence herbicidal effect; conditions: visual score after 3 weeks
# Source text: as §1
# [11] = system: Echinochloa crus-galli; experiment: Pre-emergence herbicidal effect; conditions: visual score after 3 weeks
# Source text: as §1
# [12] = system: Alopecurus myosuroides; experiment: Post-emergence herbicidal effect; conditions: 80 g ai/ha, visual score after about 3 weeks
# Method: (§2) [table] Seeds of monocotyledonous and dicotyledonous weed and crop plants are laid out in sandy loam soil in wood-fibre pots, covered with soil and cultivated in a greenhouse under good growth conditions. 2 to 3 weeks after sowing, the test plants are treated at the one-leaf stage. The compounds of the invention, formulated in the form of wettable powders (WP) or as emulsion concentrates (EC), are then sprayed onto the green parts of the plants as aqueous suspension or emulsion at a water application rate equating to 600 to 800 L/ha with addition of 0.2% wetting agent. After the test plants have been left to stand in the greenhouse under optimal growth conditions for about 3 weeks, the action of the preparations is assessed visually in comparison to untreated controls (herbicidal action in percent (%): 100% activity=the plants have died, 0% activity=like control plants).
# [13] = system: Digitaria sanguinalis; experiment: Post-emergence herbicidal effect; conditions: 80 g ai/ha, visual score after about 3 weeks
# Method: as §2
# [14] = system: Lolium rigidum; experiment: Post-emergence herbicidal effect; conditions: 80 g ai/ha, visual score after about 3 weeks
# Method: as §2
# [15] = system: Avena fatua; experiment: Post-emergence herbicidal effect; conditions: 80 g ai/ha, visual score after about 3 weeks
# Method: as §2
# [16] = system: Setaria viridis; experiment: Post-emergence herbicidal effect; conditions: 80 g ai/ha, visual score after about 3 weeks
# Method: as §2
# [17] = system: Echinochloa crus-galli; experiment: Post-emergence herbicidal effect; conditions: 80 g ai/ha, visual score after about 3 weeks
# Method: as §2
structure (smiles),measurement,setting,value
CC#Cc1cc(C)c(C2=C(OC(=O)OCC)C3(CCC(OCCC)CC3)NC2=O)c(OC)c1 (stereo not drawn) [Example Q2],Pre-emergence activity MATIN,[1],100%
same,Pre-emergence activity ALOMY,[2]; 80 g ai/ha,100%
same,Pre-emergence activity ALOMY,[2]; 320 g ai/ha,100%
same,Pre-emergence activity ABUTH,[3],90%
same,Pre-emergence activity DIGSA,[4]; 80 g ai/ha,100%
same,Pre-emergence activity DIGSA,[4]; 320 g ai/ha,100%
same,Pre-emergence activity VIOTR,[5]; 80 g ai/ha,100%
same,Pre-emergence activity VIOTR,[5]; 320 g ai/ha,100%
same,Pre-emergence activity VERPE,[6],90%
same,Pre-emergence activity AMARE,[7],100%
same,Pre-emergence activity LOLRI,[8]; 80 g ai/ha,100%
same,Pre-emergence activity LOLRI,[8]; 320 g ai/ha,100%
same,Pre-emergence activity AVEFA,[9]; 80 g ai/ha,80%
same,Pre-emergence activity AVEFA,[9]; 320 g ai/ha,100%
same,Pre-emergence activity SETVI,[10]; 80 g ai/ha,100%
same,Pre-emergence activity SETVI,[10]; 320 g ai/ha,100%
same,Pre-emergence activity ECHCG,[11]; 80 g ai/ha,100%
same,Pre-emergence activity ECHCG,[11]; 320 g ai/ha,100%
same,Post-emergence activity ALOMY,[12],100%
same,Post-emergence activity DIGSA,[13],100%
same,Post-emergence activity LOLRI,[14],100%
same,Post-emergence activity AVEFA,[15],90%
same,Post-emergence activity SETVI,[16],100%
same,Post-emergence activity ECHCG,[17],100%

# Source: US20220177428A1, “SPECIFICALLY SUBSTITUTED 3-(2-ALKOXY-6-ALKYL-4-PROPINYLPHENYL)-3-PYRROLIN-2-ONES AND THEIR USE AS HERBICIDES” (Bayer Aktiengesellschaft, priority 2019, published 2022)
